Where two headings read alike, the source gives them in different places.

This is an account of results in PMC6556873, “Rapid Covalent-Probe Discovery by Electrophile-Fragment Screening” (Journal of the American Chemical Society, 2019).

For data set [1], the target named is T1, BSA (Bos taurus, UniProt P02769).
T1 construct: gene ALB
Further details: Intact protein LC/MS covalent labelling, fragments in pools of five, 200 uM each, 4 °C. To be noted: 24 h, 4 °C, pool of five; 200 µM; covalent.

Data set [2] concerns the target T2, NUDT7 (Homo sapiens, UniProt P0C024).
T2 construct: residues 14-235, E. coli, pNIC28-Bsa4, N-terminal His6 tag removed by TEV, construct 26672 Da
Further details: Intact protein LC/MS covalent labelling, fragments in pools of five, 200 uM each, 4 °C. The settings on record: 24 h, 4 °C, pool of five; 200 µM; covalent.

Data set [3] deals with T3, OTUB2 (OTUB2A) (Homo sapiens, UniProt Q96DC9).
T3 construct: full length residues 1-234, E. coli BL21(DE3)-R3, His tag removed by TEV, construct 27312 Da
T3 sequence (Q96DC9 1-234): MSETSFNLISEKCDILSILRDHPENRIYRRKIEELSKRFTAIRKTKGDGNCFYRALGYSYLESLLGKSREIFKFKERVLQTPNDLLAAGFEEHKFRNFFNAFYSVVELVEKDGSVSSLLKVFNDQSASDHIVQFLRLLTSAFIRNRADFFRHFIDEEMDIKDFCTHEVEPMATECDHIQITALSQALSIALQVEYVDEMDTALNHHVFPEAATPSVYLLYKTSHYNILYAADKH
Also on record: Intact protein LC/MS covalent labelling, fragments in pools of five, 200 uM each, 4 °C. To be noted: 24 h, 4 °C, pool of five; 200 µM; covalent.

Data set [4] addresses T4, PCAF (Homo sapiens, UniProt Q92831).
T4 construct: gene KAT2B
Further details: Intact protein LC/MS covalent labelling, fragments in pools of five, 200 uM each, 4 °C. To be noted: 24 h, 4 °C, pool of five; 200 µM; covalent.

Data set [5] in a line: in vitro. Also on record: species or system CCD841, HEK293. The settings on record: human, hb2 cells, read-out: HB-2 Cells Viability (%).
The nature of data set [6]: in vitro. Further details: species or system HB2, HEK293. To be noted: human, ccd841 cells.
A short description of data set [7]: in vitro. Further details: species or system HB2, CCD841. To be noted: human, hek293 cells.

T1 sequence (P02769 whole entry): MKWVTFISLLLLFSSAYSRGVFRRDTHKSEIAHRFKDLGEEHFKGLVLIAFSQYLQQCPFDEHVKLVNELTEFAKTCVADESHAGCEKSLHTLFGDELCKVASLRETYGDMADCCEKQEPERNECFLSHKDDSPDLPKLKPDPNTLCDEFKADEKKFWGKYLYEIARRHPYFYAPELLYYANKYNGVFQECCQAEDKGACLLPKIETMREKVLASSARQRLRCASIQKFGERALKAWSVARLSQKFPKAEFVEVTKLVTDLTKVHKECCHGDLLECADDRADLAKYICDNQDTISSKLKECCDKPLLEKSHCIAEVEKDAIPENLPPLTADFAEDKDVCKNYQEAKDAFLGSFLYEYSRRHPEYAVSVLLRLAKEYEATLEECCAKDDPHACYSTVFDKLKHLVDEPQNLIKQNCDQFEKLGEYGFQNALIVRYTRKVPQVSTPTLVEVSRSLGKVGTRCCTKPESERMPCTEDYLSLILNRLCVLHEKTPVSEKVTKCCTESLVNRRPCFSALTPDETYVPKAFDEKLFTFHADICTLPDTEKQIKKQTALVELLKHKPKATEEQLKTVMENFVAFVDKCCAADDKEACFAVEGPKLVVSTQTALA
T4 sequence (Q92831 whole entry): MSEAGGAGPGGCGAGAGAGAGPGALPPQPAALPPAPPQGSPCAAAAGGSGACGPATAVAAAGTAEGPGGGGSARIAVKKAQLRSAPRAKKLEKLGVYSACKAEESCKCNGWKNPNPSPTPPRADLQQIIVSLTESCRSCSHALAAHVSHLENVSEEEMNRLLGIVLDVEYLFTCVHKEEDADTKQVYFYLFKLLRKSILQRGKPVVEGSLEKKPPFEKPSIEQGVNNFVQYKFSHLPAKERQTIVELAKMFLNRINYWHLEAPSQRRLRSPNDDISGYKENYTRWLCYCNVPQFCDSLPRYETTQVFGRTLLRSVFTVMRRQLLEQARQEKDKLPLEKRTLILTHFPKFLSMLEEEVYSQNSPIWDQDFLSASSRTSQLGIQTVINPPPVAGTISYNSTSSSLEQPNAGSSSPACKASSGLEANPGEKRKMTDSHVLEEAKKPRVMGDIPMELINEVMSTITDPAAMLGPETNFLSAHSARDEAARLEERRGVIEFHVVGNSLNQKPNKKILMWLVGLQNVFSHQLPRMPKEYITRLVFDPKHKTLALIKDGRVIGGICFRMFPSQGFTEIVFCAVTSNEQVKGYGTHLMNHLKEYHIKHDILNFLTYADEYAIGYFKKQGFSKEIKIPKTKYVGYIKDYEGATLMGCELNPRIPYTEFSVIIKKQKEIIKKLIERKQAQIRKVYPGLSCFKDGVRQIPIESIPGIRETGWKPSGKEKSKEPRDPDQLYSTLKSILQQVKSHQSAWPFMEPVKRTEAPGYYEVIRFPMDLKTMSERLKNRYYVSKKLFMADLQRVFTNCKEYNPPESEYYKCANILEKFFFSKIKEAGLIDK
T2 sequence (P0C024 14-235): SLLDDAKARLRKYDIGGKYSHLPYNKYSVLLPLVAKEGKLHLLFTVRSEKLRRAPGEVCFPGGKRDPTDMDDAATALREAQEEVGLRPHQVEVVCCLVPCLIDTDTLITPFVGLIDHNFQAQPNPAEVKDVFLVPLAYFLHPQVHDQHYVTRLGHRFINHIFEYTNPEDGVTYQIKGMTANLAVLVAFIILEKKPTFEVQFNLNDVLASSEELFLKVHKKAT

On to `O=C(CCl)NCC12CC3CC(CC(C3)C1)C2` [PCM-0102706], for which the BSA in data set [1] is given as 0. The molecule also had an NUDT7 in data set [2] of 0. This molecule also came in with an OTUB2 in data set [3] of 0.65. Also, the PCAF in data set [4] is 0. Moreover, the values for the viability at 48 h, 10 µM in data set [5], in data set [6] and in data set [7] were 61.3%, 76.1% and 40.8%, respectively.

In data set [1], `O=C(CCl)Nc1ccc(N2CCCC2=O)cc1` [PCM-0102915] came in with a BSA of 0. The molecule also registered an NUDT7 in data set [2] of 0. Further, the OTUB2 in data set [3] was 0.49. The same molecule gave a PCAF in data set [4] of 0. The viability at 48 h, 10 µM was 59.3% in data set [5], 65.3% in data set [6] and 17.7% in data set [7].

Turning to `C=CC(=O)NC1CCc2nc(-c3cc(F)ccc3F)cn2C1` (stereo not drawn) [PCM-0102566], the BSA in data set [1] is 0. The same molecule had an NUDT7 in data set [2] of 0. This molecule also displayed an OTUB2 in data set [3] of 0. Also, in data set [4], the PCAF is 0. Moreover, the viability at 48 h, 10 µM in data set [5] was determined as 97.4%; in data set [6] it was 106%; in data set [7], 78%.

`C=CC(=O)Nc1nc2ccccc2s1` [PCM-0102695]: the BSA in data set [1] is recorded as 0. Besides, in data set [2], the NUDT7 was 0.18. Besides, the OTUB2 in data set [3] is recorded as 0. This molecule registered a PCAF in data set [4] of 0. Besides, the viability at 48 h, 10 µM was 33.8% in data set [5], 50.3% in data set [6] and 51.9% in data set [7].

On to `CN(Cc1ccccc1Br)C(=O)CCl` [PCM-0102592], for which, in data set [1], the BSA was found to be 0. Also, in data set [2], the NUDT7 is given as 0.14. In data set [3], this molecule yielded an OTUB2 of 0.12. In addition, in data set [4], the PCAF was found to be 0. For the same molecule, the viability at 48 h, 10 µM in data set [5] turned out to be 27.4%; in data set [6] it was 71.9%; in data set [7], 39%.

`C=CC(=O)Nc1sc2c(c1C#N)CCCC2` [PCM-0102455] showed a BSA in data set [1] of 0. In addition, the NUDT7 in data set [2] turned out to be 1. The molecule also came in with an OTUB2 in data set [3] of 0. For the same molecule, in data set [4], the PCAF is reported as 0. Besides, the viability at 48 h, 10 µM in data set [5] came to 64.1%; in data set [6], 72.5%; in data set [7], 81.4%.

As for `C=CC(=O)Nc1ccc([N+](=O)[O-])cc1` [PCM-0102740], in data set [1], the BSA is given as 0. The NUDT7 in data set [2] is 0.05. The OTUB2 in data set [3] stood at 0. This molecule also gave a PCAF in data set [4] of 0. In addition, the results for the viability at 48 h, 10 µM in data set [5], in data set [6] and in data set [7] were 77.4%, 71.6% and 87.6%, respectively.

Turning to `CC1CCCC(NC(=O)NC(=O)CCl)C1C` (stereo not drawn) [PCM-0102332], the BSA in data set [1] was determined as 0. The NUDT7 in data set [2] was 0. In data set [3], this molecule had an OTUB2 of 0. Further, the PCAF in data set [4] turned out to be 0. The viability at 48 h, 10 µM in data set [5] worked out at 48.7%; in data set [6], 71%; in data set [7], 52.5%.

In the case of `CC(C)c1cc(NC(=O)CCl)on1` [PCM-0102132], in data set [1], the BSA is recorded as 0. Moreover, the NUDT7 in data set [2] came to 0. In data set [3], this molecule came in with an OTUB2 of 0. The PCAF in data set [4] worked out at 0. Besides, the results for the viability at 48 h, 10 µM in data set [5], in data set [6] and in data set [7] were 70.9%, 69.9% and 70.6%, respectively.

For the molecule `NC(=O)C1CCCN(C(=O)CCl)C1` (stereo not drawn) [PCM-0102495], in data set [1], the BSA is recorded as 0. This molecule also showed an NUDT7 in data set [2] of 0. Besides, the OTUB2 in data set [3] stood at 0. This molecule gave a PCAF in data set [4] of 0. The viability at 48 h, 10 µM worked out at 92.7% in data set [5], 93% in data set [6] and 81.7% in data set [7].

Molecule `O=C(CCl)Nc1ccc(Br)cc1` [PCM-0102992] returned a BSA in data set [1] of 0. Further, the NUDT7 in data set [2] was found to be 0.11. The OTUB2 in data set [3] is listed as 0.08. The molecule also came in with a PCAF in data set [4] of 0. Moreover, the viability at 48 h, 10 µM was found to be 12.2% in data set [5], 52.9% in data set [6] and 4.4% in data set [7].

`Cc1ccc(-c2csc(NC(=O)CCl)n2)cc1` [PCM-0102168] displayed a BSA in data set [1] of 0. The same molecule returned an NUDT7 in data set [2] of 0.4. The OTUB2 in data set [3] is 0. In addition, in data set [4], the PCAF came to 0. Moreover, the viability at 48 h, 10 µM in data set [5] was determined as 5.5%; in data set [6] it was 67.9%; in data set [7] it was 5.5%.

The molecule `C=CC(=O)N1CCN(c2cc(C)nc(C)n2)CC1` [PCM-0102806] yielded a BSA in data set [1] of 0. The NUDT7 in data set [2] came out at 0. In data set [3], this molecule came in with an OTUB2 of 0. The same molecule gave a PCAF in data set [4] of 0. Further, the viability at 48 h, 10 µM is 101% in data set [5], 105% in data set [6] and 78.9% in data set [7].

Take `C=CC(=O)NCC1CCCS1` (stereo not drawn) [PCM-0102719]: in data set [1], the BSA worked out at 0. Besides, the NUDT7 in data set [2] turned out to be 0. The OTUB2 in data set [3] is 0. The PCAF in data set [4] was determined as 0. In addition, the viability at 48 h, 10 µM in data set [5] stood at 102%; in data set [6] it was 105%; in data set [7] it was 86.1%.

In data set [1], `O=C(CCl)NCC1CCCc2ccccc21` (stereo not drawn) [PCM-0102794] gave a BSA of 0. Also, the NUDT7 in data set [2] turned out to be 0. The molecule also registered an OTUB2 in data set [3] of 0.34. Further, the PCAF in data set [4] is reported as 0. In addition, the viability at 48 h, 10 µM in data set [5] amounted to 67.3%; in data set [6] it was 66.7%; in data set [7], 53.5%.

As to `C=CC(=O)N1CCN(C)CC1` [PCM-0102634], the BSA in data set [1] is listed as 0. Besides, the NUDT7 in data set [2] stood at 0. The same molecule returned an OTUB2 in data set [3] of 0. Also, the PCAF in data set [4] was determined as 0. For the same molecule, the viability at 48 h, 10 µM in data set [5] stood at 99.6%; in data set [6], 114%; in data set [7], 131%.

With `O=C(CCl)NC(=O)Nc1ccc2c(c1)OCCO2` [PCM-0102614], the BSA in data set [1] is listed as 0. The same molecule showed an NUDT7 in data set [2] of 0.23. For the same molecule, in data set [3], the OTUB2 is 0.27. This molecule also came in with a PCAF in data set [4] of 0. The viability at 48 h, 10 µM in data set [5] amounted to 88.7%; in data set [6], 83.6%; in data set [7] it was 80.3%.

In data set [1], `CN(C(=O)CCl)C1=CCCC1` [PCM-0102869] returned a BSA of 0. This molecule returned an NUDT7 in data set [2] of 0. In data set [3], this molecule came in with an OTUB2 of 0. For the same molecule, the PCAF in data set [4] was 0. In addition, the viability at 48 h, 10 µM is 111% in data set [5], 110% in data set [6] and 101% in data set [7].

For the molecule `CCOC(=O)C1CCN(C(=O)CCl)CC1` [PCM-0102656], in data set [1], the BSA was determined as 0. For the same molecule, the NUDT7 in data set [2] is recorded as 0. In addition, the OTUB2 in data set [3] is recorded as 0. This molecule also showed a PCAF in data set [4] of 0. Also, the viability at 48 h, 10 µM in data set [5] was 86%; in data set [6] it was 90.3%; in data set [7] it was 69.4%.

For the molecule `O=C(CCl)NC(=O)c1ccccc1Cl` [PCM-0102422], the BSA in data set [1] is reported as 0. The molecule further showed an NUDT7 in data set [2] of 0. Further, in data set [3], the OTUB2 was determined as 0. The PCAF in data set [4] came out at 0. The viability at 48 h, 10 µM in data set [5] is 99.7%; in data set [6], 110%; in data set [7] it was 93%.

With `Cc1c(Cl)cnc(NC(=O)CCl)c1Cl` [PCM-0102657], the BSA in data set [1] is reported as 0. In addition, the NUDT7 in data set [2] turned out to be 0.06. Also, in data set [3], the OTUB2 worked out at 0.2. The molecule further had a PCAF in data set [4] of 0. Moreover, the viability at 48 h, 10 µM in data set [5] came out at 101%; in data set [6] it was 98.2%; in data set [7] it was 99.6%.

With `CCN(C(=O)CCl)c1nc2ccccc2s1` [PCM-0102186], in data set [1], the BSA was 0. In data set [2], this molecule returned an NUDT7 of 0.33. In addition, the OTUB2 in data set [3] is recorded as 0. The PCAF in data set [4] was 0. In addition, the viability at 48 h, 10 µM amounted to 69.7% in data set [5], 16.1% in data set [6] and 69.9% in data set [7].

`CC(C)N1CCC(NC(=O)CCl)CC1.Cl` [PCM-0102748] registered a BSA in data set [1] of 0. The molecule also returned an NUDT7 in data set [2] of 0. The OTUB2 in data set [3] turned out to be 0. In data set [4], this molecule had a PCAF of 0. The viability at 48 h, 10 µM in data set [5] was found to be 90.9%; in data set [6] it was 90.3%; in data set [7], 97%.

With `C=CC(=O)N1CCC(n2cc(C)cn2)CC1` [PCM-0102423], in data set [1], the BSA was determined as 0. Also, the NUDT7 in data set [2] is on record as 0. For the same molecule, the OTUB2 in data set [3] amounted to 0.09. Besides, the PCAF in data set [4] came out at 0. Also, the viability at 48 h, 10 µM in data set [5] was 104%; in data set [6], 108%; in data set [7], 92.5%.
